For 21 compounds, EC50 results are on record in patent US20230391760A1, “HETEROCYCLIC GLP-1 AGONISTS” (Gasherbrum Bio, Inc., priority 2020, published 2023).

Chain of GLP-1 Receptor (P43220 24-463, species assumed): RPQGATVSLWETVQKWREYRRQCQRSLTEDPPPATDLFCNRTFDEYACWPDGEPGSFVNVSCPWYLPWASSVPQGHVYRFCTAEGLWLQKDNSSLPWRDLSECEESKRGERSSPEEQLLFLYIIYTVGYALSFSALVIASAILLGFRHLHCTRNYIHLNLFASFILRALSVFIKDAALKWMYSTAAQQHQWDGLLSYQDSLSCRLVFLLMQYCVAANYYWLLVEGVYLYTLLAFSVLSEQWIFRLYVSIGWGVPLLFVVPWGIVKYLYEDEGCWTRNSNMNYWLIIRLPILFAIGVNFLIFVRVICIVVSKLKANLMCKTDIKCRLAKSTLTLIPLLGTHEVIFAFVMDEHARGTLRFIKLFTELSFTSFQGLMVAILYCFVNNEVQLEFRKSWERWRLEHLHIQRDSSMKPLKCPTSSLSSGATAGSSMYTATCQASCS

The assay addresses GLP-1 Receptor (Homo sapiens, UniProt P43220). The assay can be described thus: GLP-1R agonist cAMP stimulation assay (HEK293/GLP1R/CRE-LUC cells, cAMP dynamic 2 Kit). It counts as cell-based. The note with it: HEK293/CRE-Luc cell line stably expressing the GLP-1 Receptor, 30 min at 37° C. In outline:
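HEK293 cells stably expressing human GLP-1R with CRE-luciferase, 1000 cells/well in DPBS with 0.5 mM IBMX and 0.1% BSA, treated with compound in 1/2-log serial dilution for 30 min at 37 °C. cAMP then detected by HTRF (cAMP-d2 plus anti-cAMP cryptate), 1 h at room temperature in the dark.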
For `C[C@]1(c2ccc(C#N)cc2F)Oc2cccc(C3CCN(Cc4nc5cc(-c6nnc(C(F)(F)F)[nH]6)nnc5n4C[C@@H]4CCO4)CC3)c2O1` [Compound 447a, 3-fluoro-4-[(2S)-2-methyl-4-{1-[(7-{[(2S)-oxetan-2-yl]methyl}-3-[5-(trifluoromethyl)-4H-1,2,4-triazol-3-yl]-7H-imidazo[4,5-c]pyridazin-6-yl)methyl]piperidin-4-yl}-2H-1,3-benzodioxol-2-yl]benzonitrile], the response was half-maximal at 19 pM (EC50).
With `O=c1[nH]c(-c2cnc3c(c2)nc(CN2CCC(c4cccc5c4OC[C@@H](c4ccc(Cl)cc4)O5)CC2)n3C[C@@H]2CCO2)no1` [Compound 407a, 3-[2-({4-[(2R)-2-(4-chlorophenyl)-2,3-dihydro-1,4-benzodioxin-5-yl]piperidin-1-yl}methyl)-3-{[(2S)-oxetan-2-yl]methyl}-3H-imidazo[4,5-b]pyridin-6-yl]-4,5-dihydro-1,2,4-oxadiazol-5-one], a half-maximal response (EC50) required 4500 pM.
In the case of `CC1(c2ccc(Cl)cc2F)Oc2cccc(C3CCN(Cc4nc5cc(-c6noc(=O)[nH]6)c(F)cc5n4C[C@@H]4CCO4)CC3)c2O1` (stereo partly drawn) [Compound 222a, 3-[2-({4-[2-(4-chloro-2-fluorophenyl)-2-methyl-2H-1,3-benzodioxol-4-yl]piperidin-1-yl}methyl)-6-fluoro-1-{[(2S)-oxetan-2-yl]methyl}-1H-1,3-benzodiazol-5-yl]-4,5-dihydro-1,2,4-oxadiazol-5-one] it was 550 pM.
For the compound `CC1(c2ccc(Cl)cc2)Oc2cccc(C3CCN(Cc4nc5cc(-c6nnc(C(F)(F)F)[nH]6)ccc5n4CC4(C#N)CC4)CC3)c2O1` (stereo not drawn) [Compound 446, 1-{[2-({4-[2-(4-chlorophenyl)-2-methyl-2H-1,3-benzodioxol-4-yl]piperidin-1-yl}methyl)-5-[5-(trifluoromethyl)-4H-1,2,4-triazol-3-yl]-1H-1,3-benzodiazol-1-yl]methyl}cyclopropane-1-carbonitrile], the EC50 was found to be 120 pM.
With `O=C(Nc1ccc2c(c1)nc(CN1CCC(c3cccc(OCc4ccc(Cl)cc4F)n3)CC1)n2C[C@@H]1CCO1)c1cnc2ccccn12` [Compound 181a, N-{2-[(4-{6-[(4-chloro-2-fluorophenyl)methoxy]pyridin-2-yl}piperidin-1-yl)methyl]-1-{[(2S)-oxetan-2-yl]methyl}-1H-1,3-benzodiazol-5-yl}imidazo[1,2-a]pyridine-3-carboxamide] the figure was 310 pM; with `O=C(Nc1ccc2c(c1)nc(CN1CCC(c3cccc(OCc4ccc(Cl)cc4F)n3)CC1)n2C[C@@H]1CCO1)N1CCC(F)C1` (stereo partly drawn) [Compound 206a, N-{2-[(4-{6-[(4-chloro-2-fluorophenyl)methoxy]pyridin-2-yl}piperidin-1-yl)methyl]-1-{[(2S)-oxetan-2-yl]methyl}-1H-1,3-benzodiazol-5-yl}-3-fluoropyrrolidine-1-carboxamide], 780 pM.
The compound `C[C@]1(c2ccc(Cl)cn2)Oc2cccc(C3CCN(Cc4nc5cc(-c6noc(=O)[nH]6)nnc5n4C[C@@H]4CCO4)CC3)c2O1` [Compound 463a, 3-[6-({4-[(2S)-2-(5-chloropyridin-2-yl)-2-methyl-2H-1,3-benzodioxol-4-yl]piperidin-1-yl}methyl)-7-{[(2S)-oxetan-2-yl]methyl}-7H-imidazo[4,5-c]pyridazin-3-yl]-4,5-dihydro-1,2,4-oxadiazol-5-one] had an EC50 of 350 pM.
In turn, `C[C@H]1CN(c2ncc(F)c(OCc3ccc(Cl)cc3F)n2)CCN1Cc1nc2cc(-c3nnc(C(F)(F)F)[nH]3)ncc2n1C[C@@H]1CCO1` [Compound 489a, 4-[(4-chloro-2-fluorophenyl)methoxy]-5-fluoro-2-[(3S)-3-methyl-4-[(3-{[(2S)-oxetan-2-yl]methyl}-6-[5-(trifluoromethyl)-4H-1,2,4-triazol-3-yl]-3H-imidazo[4,5-c]pyridin-2-yl)methyl]piperazin-1-yl]pyrimidine] yielded an EC50 of 87 pM.
`Fc1cc(Cl)ccc1COc1cccc(C2=CCN(Cc3nc4cc(-c5nnc(C(F)(F)F)[nH]5)cnc4n3C[C@@H]3CCO3)CC2)n1` [Compound 323a, 6-[(4-chloro-2-fluorophenyl)methoxy]-1′-[(3-{[(2S)-oxetan-2-yl]methyl}-6-[5-(trifluoromethyl)-4H-1,2,4-triazol-3-yl]-3H-imidazo[4,5-b]pyridin-2-yl)methyl]-1′,2′,3′,6′-tetrahydro-2,4′-bipyridine] gave an EC50 of 16 pM.
On to `Fc1cc(Cl)ccc1COc1cc(C2CCN(Cc3nc4cc(-c5nnc(C(F)(F)F)[nH]5)ncc4n3C[C@@H]3CCO3)CC2)ccc1F` [Compound 470a, 4-{3-[(4-chloro-2-fluorophenyl)methoxy]-4-fluorophenyl}-1-[(3-{[(2S)-oxetan-2-yl]methyl}-6-[5-(trifluoromethyl)-4H-1,2,4-triazol-3-yl]-3H-imidazo[4,5-c]pyridin-2-yl)methyl]piperidine], for which the midpoint of the response, the EC50, lay at 220 pM.
In turn, `O=c1[nH]c(-c2cc3nc(CN4CCC(c5cccc(OCc6ccc(Cl)cc6F)n5)CC4)n(C[C@@H]4CCO4)c3cn2)no1` [Compound 316a, 3-{2-[(4-{6-[(4-chloro-2-fluorophenyl)methoxy]pyridin-2-yl}piperidin-1-yl)methyl]-3-{[(2S)-oxetan-2-yl]methyl}-3H-imidazo[4,5-c]pyridin-6-yl}-4,5-dihydro-1,2,4-oxadiazol-5-one] displayed an EC50 of 37 pM.
In the case of `CC1(c2ccc(F)cc2F)Oc2cccc(C3CCN(Cc4nc5cc(-c6nnc(C(F)(F)F)[nH]6)ccc5n4C[C@@H]4CCO4)CC3)c2O1` (stereo partly drawn) [Compound 259a, 2-({4-[2-(2,4-difluorophenyl)-2-methyl-2H-1,3-benzodioxol-4-yl]piperidin-1-yl}methyl)-1-{[(2S)-oxetan-2-yl]methyl}-5-[5-(trifluoromethyl)-4H-1,2,4-triazol-3-yl]-1H-1,3-benzodiazole] it was 74 pM; in that of `C[C@]1(c2ccc(Cl)cn2)Oc2cccc(C3CCN(Cc4nc5cc(-c6nnn[nH]6)ncc5n4C[C@@H]4CCO4)CC3)c2O1` [Compound 449a, 5-chloro-2-[(2S)-2-methyl-4-{1-[(3-{[(2S)-oxetan-2-yl]methyl}-6-(1H-1,2,3,4-tetrazol-5-yl)-3H-imidazo[4,5-c]pyridin-2-yl)methyl]piperidin-4-yl}-2H-1,3-benzodioxol-2-yl]pyridine], 16 pM; in that of `N#Cc1ccc(COc2cccc(C3CCN(Cc4nc5cc(-c6nnc(C(F)(F)F)[nH]6)cnc5n4C[C@@H]4CCO4)CC3)n2)c(F)c1` [Compound 325a, 3-fluoro-4-{[(6-{1-[(3-{[(2S)-oxetan-2-yl]methyl}-6-[5-(trifluoromethyl)-4H-1,2,4-triazol-3-yl]-3H-imidazo[4,5-b]pyridin-2-yl)methyl]piperidin-4-yl}pyridin-2-yl)oxy]methyl}benzonitrile], 12 pM.
Turning to `O=c1[nH]c(-c2cnc3c(c2)nc(CN2CC=C(c4cccc(OCc5ccc(Cl)cc5F)n4)CC2)n3C[C@@H]2CCO2)no1` [Compound 324a, 3-[2-({6-[(4-chloro-2-fluorophenyl)methoxy]-1′,2′,3′,6′-tetrahydro-[2,4′-bipyridin]-1′-yl}methyl)-3-{[(2S)-oxetan-2-yl]methyl}-3H-imidazo[4,5-b]pyridin-6-yl]-4,5-dihydro-1,2,4-oxadiazol-5-one], the 50% effective concentration (EC50) was determined as 110 pM.
In the case of `O=C(O)Cc1ccc2c(c1)nc(CN1CC=C(c3cccc(OCc4ccc(Cl)cc4F)n3)CC1)n2C[C@@H]1CCO1` [Compound 112a, (S)-2-(2-((6-((4-chloro-2-fluorobenzyl)oxy)-3′,6′-dihydro-[2,4′-bipyridin]-1′(2′H)-yl)methyl)-1-(oxetan-2-ylmethyl)-1H-benzo[d]imidazol-5-yl)acetic acid] it was 6350 pM; in that of `Fc1cc(Cl)ccc1COc1cc(C2=CCN(Cc3nc4cc(-c5nnc(C(F)(F)F)[nH]5)cnc4n3C[C@@H]3CCO3)CC2)ccc1F` [Compound 294a, 4-{3-[(4-chloro-2-fluorophenyl)methoxy]-4-fluorophenyl}-1-[(3-{[(2S)-oxetan-2-yl]methyl}-6-[5-(trifluoromethyl)-4H-1,2,4-triazol-3-yl]-3H-imidazo[4,5-b]pyridin-2-yl)methyl]-1,2,3,6-tetrahydropyridine], 470 pM; in that of `Cc1cnc(C(=O)Nc2ccc3c(c2)nc(CN2CCC(c4cccc(OCc5ccc(Cl)cc5F)n4)CC2)n3C[C@@H]2CCO2)c(C)c1` [Compound 184a, N-{2-[(4-{6-[(4-chloro-2-fluorophenyl)methoxy]pyridin-2-yl}piperidin-1-yl)methyl]-1-{[(2S)-oxetan-2-yl]methyl}-1H-1,3-benzodiazol-5-yl}-3,5-dimethylpyridine-2-carboxamide], 2000 pM.
As for `O=C(Nc1ccc2c(c1)nc(CN1CCC(c3cccc(OCc4ccc(Cl)cc4F)n3)CC1)n2C[C@@H]1CCO1)c1ccccc1` [Compound 166a, N-{2-[(4-{6-[(4-chloro-2-fluorophenyl)methoxy]pyridin-2-yl}piperidin-1-yl)methyl]-1-{[(2S)-oxetan-2-yl]methyl}-1H-1,3-benzodiazol-5-yl}benzamide], the EC50 was found to be 140 pM.
In the case of `CC1(c2ccc(C#N)cc2Cl)Oc2cccc(C3CCN(Cc4nc5cc(-c6nnc(C(F)(F)F)[nH]6)ccc5n4C[C@@H]4CCO4)CC3)c2O1` (stereo partly drawn) [Compound 353a, 3-chloro-4-(2-methyl-4-{1-[(1-{[(2S)-oxetan-2-yl]methyl}-5-[5-(trifluoromethyl)-4H-1,2,4-triazol-3-yl]-1H-1,3-benzodiazol-2-yl)methyl]piperidin-4-yl}-2H-1,3-benzodioxol-2-yl)benzonitrile] it was 26 pM; in that of `COCCOc1ccc(C(=O)Nc2ccc3c(c2)nc(CN2CCC(c4cccc(OCc5ccc(Cl)cc5F)n4)CC2)n3C[C@@H]2CCO2)cn1` [Compound 177a, N-{2-[(4-{6-[(4-chloro-2-fluorophenyl)methoxy]pyridin-2-yl}piperidin-1-yl)methyl]-1-{[(2S)-oxetan-2-yl]methyl}-1H-1,3-benzodiazol-5-yl}-6-(2-methoxyethoxy)pyridine-3-carboxamide], 5900 pM.

Broadly, the EC50 is the concentration needed to bring the measured effect to its halfway point. A low value points to greater potency.
